This data set can be described thus: head-to-tail lactamisation of linear tetrapeptide (N-terminal Pro amine + C-terminal Ile acid), HATU (2 equiv), DIPEA (3 equiv). To be noted: the molecule shown is the open-chain precursor; 12-membered ring; CH2Cl2 (with ca. 0.2-0.5% DMF); 0.4 mM; 25.0 °C; 1.5 h.

With `CC[C@H](C)[C@H](NC(=O)[C@H](C)NC(=O)[C@H](CC(C)C)NC(=O)[C@@H]1CCCN1)C(=O)O` [H-Pro-Leu-Ala-Ile-OH], the ring closure, isolated yield is 70%.

The record behind these values is article PMC8074941, “Synthesis of cyclotetrapeptide analogues of c-PLAI and evaluation of their antimicrobial properties” (Royal Society Open Science, 2021).
